Measurements taken from US20260034218A1, “ALLEVIATING GRAFT VERSUS HOST DISEASE USING ENGINEERED INKT CELLS” (The Regents of the University of California, priority 2022, published 2026).

Assays:
[1] = system: HSC-iNKT cells; assay: GCV in vitro killing assay; type: cell-based, human; conditions: GCV 0-50 μM, 4 days
Protocol: (§1) To increase the safety profile of HSC-iNKT cell product, we included an sr39TK PET imaging/suicide gene in the lentiviral vector, which allows for the in vivo monitoring of these cells using PET imaging and the elimination of these cells through ganciclovir (GCV)-induced depletion in case of an adverse event (FIGS S1A and 1B in Li et al.).
For GCV in vitro killing assays, HSC-iNKT cells were cultured in C10 medium in the presence of titrated amount of GCV (0-50 μM) for 4 days; live HSC-iNKT cells were then counted using a hematocytometer (VWR) via Trypan Blue staining (Fisher Scientific).

[2] = system: HSC-iNKT cells; assay: GCV in vivo killing assay, NSG xenograft mouse model; design: species or system human cells in NSG mice; conditions: GCV i.p. 50 mg/kg per day, 5 days
Protocol: as §1
GCV in vivo killing assay was performed using an NSG xenograft mouse model. NSG mice received i.v. injection of 1×10^7 HSC-iNKT cells on day 0, followed by i.p. injection of GCV for 5 consecutive days (50 mg/kg per injection per day). On day 5, mice were terminated. Multiple tissues (i.e., blood, spleen, liver, and lung) were collected and processed for flow cytometry analysis to detect tissue-infiltrating HSC-iNKT cells (identified as iNKT TCR^+CD45^+), following established protocols (Li et al., 2021b; Y. R. Li et al., 2022; Zhu et al., 2019).

## Nc1nc(O)c2ncn(COC(CO)CO)c2n1 [GCV, Ganciclovir]
[1]
  killing of HSC-iNKT cells in cell culture: effective killing
[2]
  depletion of HSC-iNKT cells from blood, liver, spleen and lung: efficient depletion
